The values that follow come from US4539202A, “Derivatives of clavulanic acid, a process for their preparation and their use” (Beecham Group p.l.c., priority 1983, dated 1985).

For assay [1], the system named is E coli JT39. The experiment in a line: Antibacterial activity, standard MIC test. Format: cell-based, Escherichia coli. The settings on record: compound alone. An excerpt: (§1) Using conventional methods the following results were obtained in a standard MIC test: […]
The subject of assay [2] is K aerogenes E70. Nature of the assay: Antibacterial activity, standard MIC test. The class given is cell-based. The settings on record: Klebsiella aerogenes, compound alone.
Excerpt: as §1

The subject of assay [3] is St aureus Russell. The experiment in a line: Antibacterial activity, standard MIC test. Format: cell-based. The settings on record: Staphylococcus aureus, compound alone.
Excerpt: as §1

In assay [4] the test system is K aerogenes E70. The experiment in a line: Synergistic activity with amoxycillin, standard MIC test. Format: cell-based, Klebsiella aerogenes. The settings on record: amoxycillin alone.
Excerpt: (§2) Synergistic Activity with Amoxycillin
as §1

The subject of assay [5] is St aureus Russell. Described as above. The class given is cell-based, Staphylococcus aureus. To be noted: amoxycillin alone.
Excerpt: as §2, §1

Assay [6] deals with E coli JT39. The description is as above. The class given is cell-based, Escherichia coli. The settings on record: amoxycillin alone.
Excerpt: as §2, §1

[7] abbreviates: Escherichia coli, read-out: MIC.

Converted amounts (≈) assume the structure as drawn. Where two headings read alike, the source gives them in different places.

Turning to `O=C(O)CCNC/C=C1\O[C@@H]2CC(=O)N2[C@H]1C(=O)O` [1(b), 9-N-(2'-Carboxyethyl)aminodeoxyclavulanic acid], the MIC was 15 µg/mL (≈ 55.5 µM) in assay [1] (setting [7]), greater than 500 µg/mL in assay [2] and 31 µg/mL (≈ 115 µM) in assay [3].

On to `O=C(O)CCCCNC/C=C1\O[C@@H]2CC(=O)N2[C@H]1C(=O)O` [3(c), 9-N-(4'-Carboxybutyl)aminodeoxyclavulanic acid], for which the minimum inhibitory concentration (MIC) was found to be 62.5 µg/mL (≈ 210 µM) in assay [1] (setting [7]), 250 µg/mL (≈ 838 µM) in assay [2] and 31 µg/mL (≈ 104 µM) in assay [3].

`O=C(O)c1ccc(CNC/C=C2\O[C@@H]3CC(=O)N3[C@H]2C(=O)O)cc1` [4(c), 9-N-(4'-Carboxybenzyl)aminodeoxyclavulanic acid]: the results for the MIC in assay [1] (setting [7]), in assay [2] and in assay [3] were 31 µg/mL (≈ 93.3 µM), 250 µg/mL (≈ 752 µM) and 4 µg/mL (≈ 12 µM), respectively.

With `COC(=O)CCNC/C=C1\O[C@@H]2CC(=O)N2[C@H]1C(=O)O` [6(b), 9-N-(2'-Methoxycarbonylethyl)aminodeoxyclavulanic acid], the MIC was determined as 31 µg/mL (≈ 109 µM) in assay [1] (setting [7]), 250 µg/mL (≈ 879 µM) in assay [2] and 8 µg/mL (≈ 28.1 µM) in assay [3].

`O=C(O)CCCCCNC/C=C1\O[C@@H]2CC(=O)N2[C@H]1C(=O)O` [9(b), 9-N-(5'-Carboxypentyl)aminodeoxyclavulanic acid]: the MIC stood at 31 µg/mL (≈ 99.3 µM) in assay [1] (setting [7]), 250 µg/mL (≈ 800 µM) in assay [2] and 31 µg/mL (≈ 99.3 µM) in assay [3].

With `O=C(O)CCCNC/C=C1\O[C@@H]2CC(=O)N2[C@H]1C(=O)O` [10(b), 9-N-(3'-Carboxypropyl)aminodeoxyclavulanic acid], the MIC in assay [1] (setting [7]) stood at 31 µg/mL (≈ 109 µM); in assay [2], 250 µg/mL (≈ 879 µM); in assay [3], 62.5 µg/mL (≈ 220 µM).

As to `O=C(O)CCCCCCCCCCNC/C=C1\O[C@@H]2CC(=O)N2[C@H]1C(=O)O` [11(b), 9-N-(10'-Carboxydecyl)aminodeoxyclavulanic acid], the MIC in assay [2] was greater than 500 µg/mL; in assay [3], 8 µg/mL (≈ 20.9 µM).

On to `O=C(O)[C@H]1/C(=C/CNC[C@H]2CC[C@H](C(=O)O)CC2)O[C@@H]2CC(=O)N21` [12(d), 9-N-(trans-4'-Carboxycyclohexylmethyl)aminodeoxyclavulanic acid], for which the values for the MIC in assay [1] (setting [7]), in assay [2] and in assay [3] were 31 µg/mL (≈ 91.6 µM), 250 µg/mL (≈ 739 µM) and 16 µg/mL (≈ 47.3 µM), respectively.

Take `N[C@@H](CCCCNC/C=C1\O[C@@H]2CC(=O)N2[C@H]1C(=O)O)C(=O)O` [14(d)]: the MIC was 125 µg/mL (≈ 382 µM) in assay [1], greater than 500 µg/mL in assay [2] and 31 µg/mL (≈ 94.7 µM) in assay [3].

Turning to `CC1(C)S[C@@H]2[C@H](NC(=O)[C@H](N)c3ccc(O)cc3)C(=O)N2[C@H]1C(=O)O` [Amoxycillin], the MIC amoxycillin stood at 500 µg/mL in assay [4], 500 µg/mL in assay [5] and 2000 µg/mL in assay [6].

Usually MIC stands for the least concentration at which growth counts as inhibited.
